In patent publication US20130203659A1 (priority 2006, published 2013):
Like-named read-outs stand apart in the source and are kept apart here. Positions of bridges follow the written chain, without caps; N, C: chain ends. Residues, ends and D or L forms follow the SMILES beside them. No end group written: not given here. branched PEG 40 kDa = branched polyethylene glycol of 40 kDa

Tests used:
[1] = biological target: T1, human GLP-1 receptor (Homo sapiens, UniProt P43220); assay: In vitro GLP-1 receptor binding (125I-GLP-1 ligand binding assay), human receptor
T1 construct: expressed in transfected cells; host or cells: CHOK1 cells with a cAMP-regulated luciferase reporter construct
T1 sequence (P43220 24-463): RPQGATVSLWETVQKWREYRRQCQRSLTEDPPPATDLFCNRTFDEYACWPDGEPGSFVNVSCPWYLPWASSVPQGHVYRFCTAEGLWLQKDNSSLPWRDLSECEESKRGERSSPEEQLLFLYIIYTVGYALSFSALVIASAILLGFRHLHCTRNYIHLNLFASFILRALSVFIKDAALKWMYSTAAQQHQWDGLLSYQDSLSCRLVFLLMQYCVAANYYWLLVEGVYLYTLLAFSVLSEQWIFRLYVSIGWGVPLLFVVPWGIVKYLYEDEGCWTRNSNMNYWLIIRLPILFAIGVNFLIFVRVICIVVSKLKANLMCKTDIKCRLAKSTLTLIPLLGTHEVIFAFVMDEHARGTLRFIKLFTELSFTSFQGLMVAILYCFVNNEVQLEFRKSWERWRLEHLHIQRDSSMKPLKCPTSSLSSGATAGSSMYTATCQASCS
Description: Cells were sedimented at 1500 rpm for 10 minutes. The resulting pellets were homogenized in 15 mls of ice cold sucrose buffer (25 mM Tris-HCl, 0.32 M Sucrose, 0.25 g/L sodium azide, pH 7.4) with a motorized, glass fitted, Teflon homogenizer. The homogenate was centrifuged at 48,000×g at 4° C. for 10 minutes, resuspended in 25 ml assay buffer (50 mM Tris-HCl, 5 mM MgCl2, 10 mg/ml protease-free BSA, 0.1 mg/ml STI, and 0.1 mg/ml Pefabloc, pH 7.4) with a Tissue-Tearor (Biospec Products), then centrifuged again at 48,000×g for 10 minutes. The pellets were homogenized for a third time in 15 ml assay buffer using the Tissue-Tearor and again centrifuged at 48,000×g for 10 minutes. The resulting pellet was resuspended in assay buffer at a wet weight concentration of 4 mg/ml.
Binding assays were performed in 96-well U-bottom plates. […] Bound radioactivity was determined using a TopCount microplate scintillation and luminescence counter (Packard Instrument Company, PerkinElmer, Shelton, Conn.). Nonlinear regression analyses of resulting concentration curves were performed using GraphPad Prism (GraphPad Software, Inc., San Diego, Calif.).

[2] = biological target: T1, human GLP-1 receptor; assay: GLP-1R reporter assay (cAMP-regulated luciferase, CHOK1 cells), human receptor; format: cell-based
Description: (§1) A. GLP-1R Reporter Assay:
(§2) Increased cAMP levels were measured through enhanced expression of a luciferase reporter gene. […] The evening prior to assay, the cells were washed, the medium replaced with serum-free medium containing 0.5% protease-free bovine serum albumin (BSA), and then cultured overnight. […] Cell lysates were assayed for luciferase activity using the Luciferase Assay System (Promega Corporation, Madison, Wis.). Luciferase activity was measured using a Luminoskan Ascent (Thermo Electron Corporation, Marietta, Ohio). Nonlinear regression analyses of resultant compound concentration curves were performed using GraphPad Prism (GraphPad Software, Inc., San Diego, Calif.).

[3] = biological target: T2, mouse GLP-1 receptor (Mus musculus, UniProt O35659); assay: GLP-1R reporter assay (cAMP-regulated luciferase, CHOK1 cells), mouse receptor; format: cell-based; conditions: 6 hours exposure
T2 construct: expressed in transfected cells; host or cells: CHOK1 cells with a cAMP-regulated luciferase reporter construct
T2 sequence (O35659 22-463): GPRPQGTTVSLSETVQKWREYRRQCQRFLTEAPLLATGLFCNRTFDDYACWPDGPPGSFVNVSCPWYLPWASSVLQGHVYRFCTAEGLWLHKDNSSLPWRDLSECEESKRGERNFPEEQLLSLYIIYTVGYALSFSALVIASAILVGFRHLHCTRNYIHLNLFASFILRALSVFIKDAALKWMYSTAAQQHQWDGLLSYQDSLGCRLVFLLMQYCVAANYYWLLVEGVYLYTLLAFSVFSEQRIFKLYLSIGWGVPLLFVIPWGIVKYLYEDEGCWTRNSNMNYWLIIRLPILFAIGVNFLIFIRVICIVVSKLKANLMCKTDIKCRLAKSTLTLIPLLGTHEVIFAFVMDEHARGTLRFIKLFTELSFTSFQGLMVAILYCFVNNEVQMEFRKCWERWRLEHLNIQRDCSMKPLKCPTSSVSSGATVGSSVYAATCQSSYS
Description: as §1, §2

[4] = luciferase reporter, 6 hours exposure, read-out: EC50 human
[5] = membranes of CHOK1 cells expressing human GLP-1 receptor, 0.2 nM 125I-GLP-1

EC50 [2, 4] [nM] | EC50 [3] [nM] | IC50 [1, 5] [nM] | Compound | other results
0.2 | 0.8 | – | CC[C@H](C)[C@H](NC(=O)[C@H](Cc1ccccc1)NC(=O)[C@H](CCC(=O)O)NC(=O)[C@H](CCCCN)NC(=O)[C@H](C)NC(=O)[C@H](C)NC(=O)[C@H](CCC(N)=O)NC(=O)CNC(=O)[C@H](CCC(=O)O)NC(=O)[C@H](CC(C)C)NC(=O)[C@H](Cc1ccc(O)cc1)NC(=O)[C@H](CO)NC(=O)[C@H](CO)NC(=O)[C@@H](NC(=O)[C@H](CC(=O)O)NC(=O)[C@H](CO)NC(=O)[C@@H](NC(=O)[C@H](Cc1ccccc1)NC(=O)[C@@H](NC(=O)CNC(=O)[C@H](CCC(=O)O)NC(=O)[C@H](C)NC(=O)[C@H](Cc1c[nH]cn1)NC(=O)[C@H](C)N)[C@@H](C)O)[C@@H](C)O)C(C)C)C(=O)N[C@@H](C)C(=O)N[C@@H](Cc1c[nH]c2ccccc12)C(=O)N[C@@H](CC(C)C)C(=O)N[C@H](C(=O)N[C@@H](CCCCN)C(=O)NCC(=O)N[C@@H](CCCNC(=N)N)C(=O)O)C(C)C [A-GLP-1, A HAEGTFTSDVSSYLEGQAAKEFIAWLVKGR] | IC50 [1]: 38 nM
– | – | – | CC[C@H](C)[C@H](NC(=O)[C@H](Cc1ccccc1)NC(=O)[C@H](CCC(=O)O)NC(=O)[C@@H]1CCC(=O)NCCCC[C@H](NC(=O)[C@H](CCC(=O)O)NC(=O)[C@H](CC(C)C)NC(=O)[C@H](Cc2ccc(O)cc2)NC(=O)[C@H](CO)NC(=O)[C@H](CO)NC(=O)[C@@H](NC(=O)[C@H](CC(=O)O)NC(=O)[C@H](CO)NC(=O)[C@@H](NC(=O)[C@H](Cc2ccccc2)NC(=O)[C@@H](NC(=O)CNC(=O)[C@H](CCC(=O)O)NC(=O)CNC(=O)[C@@H](N)Cc2c[nH]cn2)[C@@H](C)O)[C@@H](C)O)C(C)C)C(=O)N[C@@H](CCC(N)=O)C(=O)N[C@@H](C)C(=O)N[C@@H](C)C(=O)N1)C(=O)N[C@@H](C)C(=O)N[C@@H](Cc1c[nH]c2ccccc12)C(=O)N[C@@H](CC(C)C)C(=O)N[C@H](C(=O)N[C@@H](CCCCN)C(=O)NCC(=O)N[C@@H](CCCNC(=N)N)C(=O)NCC(N)=O)C(C)C [GLP1(7-37) cyclo[Lys16-Glu20], HGEGTFTSDVSSYLEKQAAEEFIAWLVKGRG AMIDE] (H-HGEGTFTSDVSSYLEKQAAEEFIAWLVKGRG-NH2; lactam 16-20) | EC50 [2]: 0.016 nM
1 | 4 | – | CC[C@H](C)[C@H](NC(=O)[C@H](Cc1ccccc1)NC(=O)[C@H](CCC(=O)O)NC(=O)[C@H](CCCCN)NC(=O)[C@H](C)NC(=O)[C@H](C)NC(=O)[C@H](CCC(N)=O)NC(=O)CNC(=O)[C@H](CCC(=O)O)NC(=O)[C@H](CC(C)C)NC(=O)[C@H](Cc1ccc(O)cc1)NC(=O)[C@H](CO)NC(=O)[C@H](CO)NC(=O)[C@@H](NC(=O)[C@H](CC(=O)O)NC(=O)[C@H](CO)NC(=O)[C@@H](NC(=O)[C@H](Cc1ccccc1)NC(=O)[C@@H](NC(=O)CNC(=O)[C@H](CCC(=O)O)NC(=O)[C@H](C)NC(=O)[C@H](Cc1c[nH]cn1)NC(=O)[C@H](CCC(=O)O)NC(=O)[C@@H](N)CCSC)[C@@H](C)O)[C@@H](C)O)C(C)C)C(=O)N[C@@H](C)C(=O)N[C@@H](Cc1c[nH]c2ccccc12)C(=O)N[C@@H](CC(C)C)C(=O)N[C@H](C(=O)N[C@@H](CCCCN)C(=O)NCC(=O)N[C@@H](CCCNC(=N)N)C(=O)O)C(C)C [ME-GLP1, ME HAEGTFTSDVSSYLEGQAAKEFIAWLVKGR] | –
– | – | – | CC[C@H](C)[C@H](NC(=O)[C@H](Cc1ccccc1)NC(=O)[C@H](CCC(=O)O)NC(=O)[C@H](CCCCN)NC(=O)[C@H](C)NC(=O)[C@H](C)NC(=O)[C@H](CCC(N)=O)NC(=O)CNC(=O)[C@H](CCC(=O)O)NC(=O)[C@H](CC(C)C)NC(=O)[C@H](Cc1ccc(O)cc1)NC(=O)[C@H](CO)NC(=O)[C@H](CO)NC(=O)[C@@H](NC(=O)[C@H](CC(=O)O)NC(=O)[C@H](CO)NC(=O)[C@@H](NC(=O)[C@H](Cc1ccccc1)NC(=O)[C@@H](NC(=O)CNC(=O)[C@H](CCC(=O)O)NC(=O)[C@H](C)NC(=O)[C@H](Cc1c[nH]cn1)NC(=O)[C@H](Cc1c[nH]cn1)NC(=O)[C@@H](N)CCSC)[C@@H](C)O)[C@@H](C)O)C(C)C)C(=O)N[C@@H](C)C(=O)N[C@@H](Cc1c[nH]c2ccccc12)C(=O)N[C@@H](CC(C)C)C(=O)N[C@H](C(=O)N[C@@H](CCCCN)C(=O)NCC(=O)N[C@@H](CCCNC(=N)N)C(=O)O)C(C)C [MH-GLP1, MH HAEGTFTSDVSSYLEGQAAKEFIAWLVKGR] | IC50 [1]: 350 nM
4 | – | – | CC[C@H](C)[C@H](NC(=O)[C@H](Cc1ccccc1)NC(=O)[C@H](CCC(=O)O)NC(=O)[C@H](CCCCN)NC(=O)[C@H](C)NC(=O)[C@H](C)NC(=O)[C@H](CCC(N)=O)NC(=O)CNC(=O)[C@H](CCC(=O)O)NC(=O)[C@H](CC(C)C)NC(=O)[C@H](Cc1ccc(O)cc1)NC(=O)[C@H](CO)NC(=O)[C@H](CO)NC(=O)[C@@H](NC(=O)[C@H](CC(=O)O)NC(=O)[C@H](CO)NC(=O)[C@@H](NC(=O)[C@H](Cc1ccccc1)NC(=O)[C@@H](NC(=O)CNC(=O)[C@H](CCC(=O)O)NC(=O)[C@H](C)NC(=O)[C@H](Cc1c[nH]cn1)NC(=O)[C@H](CCCCN)NC(=O)[C@@H](N)CCSC)[C@@H](C)O)[C@@H](C)O)C(C)C)C(=O)N[C@@H](C)C(=O)N[C@@H](Cc1c[nH]c2ccccc12)C(=O)N[C@@H](CC(C)C)C(=O)N[C@H](C(=O)N[C@@H](CCCCN)C(=O)NCC(=O)N[C@@H](CCCNC(=N)N)C(=O)O)C(C)C [MK-GLP1, MK HAEGTFTSDVSSYLEGQAAKEFIAWLVKGR] | –
0.5 | 3 | – | CC[C@H](C)[C@H](NC(=O)[C@H](Cc1ccccc1)NC(=O)[C@H](CCC(=O)O)NC(=O)[C@H](CCCCN)NC(=O)[C@H](C)NC(=O)[C@H](C)NC(=O)[C@H](CCC(N)=O)NC(=O)CNC(=O)[C@H](CCC(=O)O)NC(=O)[C@H](CC(C)C)NC(=O)[C@H](Cc1ccc(O)cc1)NC(=O)[C@H](CO)NC(=O)[C@H](CO)NC(=O)[C@@H](NC(=O)[C@H](CC(=O)O)NC(=O)[C@H](CO)NC(=O)[C@@H](NC(=O)[C@H](Cc1ccccc1)NC(=O)[C@@H](NC(=O)CNC(=O)[C@H](CCC(=O)O)NC(=O)[C@H](C)NC(=O)[C@H](Cc1c[nH]cn1)NC(=O)[C@H](CCC(N)=O)NC(=O)[C@@H](N)CCSC)[C@@H](C)O)[C@@H](C)O)C(C)C)C(=O)N[C@@H](C)C(=O)N[C@@H](Cc1c[nH]c2ccccc12)C(=O)N[C@@H](CC(C)C)C(=O)N[C@H](C(=O)N[C@@H](CCCCN)C(=O)NCC(=O)N[C@@H](CCCNC(=N)N)C(=O)O)C(C)C [MQ-GLP1, MQ HAEGTFTSDVSSYLEGQAAKEFIAWLVKGR] | –
0.8 | 5 | – | CC[C@H](C)[C@H](NC(=O)[C@H](Cc1ccccc1)NC(=O)[C@H](CCC(=O)O)NC(=O)[C@H](CCCCN)NC(=O)[C@H](C)NC(=O)[C@H](C)NC(=O)[C@H](CCC(N)=O)NC(=O)CNC(=O)[C@H](CCC(=O)O)NC(=O)[C@H](CC(C)C)NC(=O)[C@H](Cc1ccc(O)cc1)NC(=O)[C@H](CO)NC(=O)[C@H](CO)NC(=O)[C@@H](NC(=O)[C@H](CC(=O)O)NC(=O)[C@H](CO)NC(=O)[C@@H](NC(=O)[C@H](Cc1ccccc1)NC(=O)[C@@H](NC(=O)CNC(=O)[C@H](CCC(=O)O)NC(=O)[C@H](C)NC(=O)[C@H](Cc1c[nH]cn1)NC(=O)[C@H](Cc1c[nH]c2ccccc12)NC(=O)[C@@H](N)CCSC)[C@@H](C)O)[C@@H](C)O)C(C)C)C(=O)N[C@@H](C)C(=O)N[C@@H](Cc1c[nH]c2ccccc12)C(=O)N[C@@H](CC(C)C)C(=O)N[C@H](C(=O)N[C@@H](CCCCN)C(=O)NCC(=O)N[C@@H](CCCNC(=N)N)C(=O)O)C(C)C [MW-GLP1, MW HAEGTFTSDVSSYLEGQAAKEFIAWLVKGR] | –
12 | – | > 1000 | cgGLP-1: SEQ ID NO: 6 + 20K PEG (HGEGTFTSDVSSYLEGC(PEG 20 kDa)AAKEFIAWLVKGRG) | –
0.7 | – | > 1000 | cgGLP-2: SEQ ID NO: 6 + 40k branched PEG (HGEGTFTSDVSSYLEGC(branched PEG 40 kDa)AAKEFIAWLVKGRG) | –
– | – | > 1000 | cgGLP-7: SEQ ID NO: 6 + 30k PEG (HGEGTFTSDVSSYLEGC(PEG 30 kDa)AAKEFIAWLVKGRG) | –

Compound | EC50 [2, 4] [nM] | EC50 [3] [nM] | IC50 [1, 5] [nM] | other results
cgGLP-13: SEQ ID NO: 8 + 20k PEG monomer (HGEGTFTSDVSSYLEGC(PEG 20 kDa)AAKEFIAWLKNGGPSSGAPPPS) | 1 | – | > 1000 | –
